Tests used:
Format in all cases: functional, cell-based
SCC-3 = experiment: cells; conditions: Homo sapiens;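 further: cell viability assay measuring inhibition of SCC-3 cell growth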
Description: SANGER: Inhibition of human SCC-3 cell growth in a cell viability assay.

NCI-H1522 = experiment: cells; conditions: Homo sapiens;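 further: growth inhibition of NCI-H1522 cells, read out with a cell viability assay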
Description: SANGER: Inhibition of human NCI-H1522 cell growth in a cell viability assay.

HCC1599 = experiment: cells; conditions: Homo sapiens;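 further: growth inhibition of HCC1599 cells, read out in a cell viability assay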
Description: SANGER: Inhibition of human HCC1599 cell growth in a cell viability assay.

Raji = experiment: cells; conditions: Homo sapiens;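 further: cell viability assay measuring inhibition of Raji cell growth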
Description: SANGER: Inhibition of human Raji cell growth in a cell viability assay.

NCI-H716 = experiment: cells; conditions: Homo sapiens;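 further: growth inhibition of human NCI-H716 cells, measured by a cell viability assay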
Description: SANGER: Inhibition of human NCI-H716 cell growth in a cell viability assay.

NCI-H524 = experiment: cells; conditions: Homo sapiens;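 further: growth inhibition of human NCI-H524 cells, read out through a cell viability assay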
Description: SANGER: Inhibition of human NCI-H524 cell growth in a cell viability assay.

EB-3 = experiment: cells; conditions: Homo sapiens;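 further: human EB-3 cells, growth inhibition read out via a cell viability assay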
Description: SANGER: Inhibition of human EB-3 cell growth in a cell viability assay.

PF-382 = experiment: cells; conditions: Homo sapiens
Description: SANGER: Inhibition of human PF-382 cell growth in a cell viability assay.

CAL-148 = experiment: cells; conditions: Homo sapiens
Description: SANGER: Inhibition of human CAL-148 cell growth in a cell viability assay.

L-540 = experiment: cells; conditions: Homo sapiens;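 further: growth inhibition of the human L-540 cell line, read out with a viability assay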
Description: SANGER: Inhibition of human L-540 cell growth in a cell viability assay.

OPM-2 = experiment: cells; conditions: Homo sapiens;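 further: growth of OPM-2 cells measured with a viability assay, IC50 for suppression of proliferation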
Description: SANGER: Inhibition of human OPM-2 cell growth in a cell viability assay.

YT = experiment: cells; conditions: Homo sapiens
Description: SANGER: Inhibition of human YT cell growth in a cell viability assay.

BL-70 = experiment: SANGER: Inhibition of human BL-70 cell growth in a cell viability assay.
LC4-1 = experiment: cells; conditions: Homo sapiens;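 further: growth inhibition of LC4-1 cells, read out with a cell viability assay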
Description: SANGER: Inhibition of human LC4-1 cell growth in a cell viability assay.

EHEB = experiment: cells; conditions: Homo sapiens;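 further: growth inhibition of human EHEB cells, read out with a cell viability assay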
Description: SANGER: Inhibition of human EHEB cell growth in a cell viability assay.

NCI-H1417 = experiment: cells; conditions: Homo sapiens;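 further: human NCI-H1417 cells, growth inhibition determined with a cell viability readout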
Description: SANGER: Inhibition of human NCI-H1417 cell growth in a cell viability assay.

A253 cell line = experiment: cells; conditions: Homo sapiens;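 further: growth inhibition of A253 cells, read out with a cell viability assay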
Description: SANGER: Inhibition of human A253 cell growth in a cell viability assay.

TE-441-T = experiment: cells; conditions: Homo sapiens
Description: SANGER: Inhibition of human TE-441-T cell growth in a cell viability assay.

NCI-H322M = experiment: cells; conditions: Homo sapiens;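 further: cell viability assay measuring inhibition of growth of human NCI-H322M cells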
Description: SANGER: Inhibition of human NCI-H322M cell growth in a cell viability assay.

CESS = experiment: SANGER: Inhibition of human CESS cell growth in a cell viability assay.
ST486 = experiment: SANGER: Inhibition of human ST486 cell growth in a cell viability assay.
NB12 = experiment: cells; conditions: Homo sapiens;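 further: growth inhibition of human NB12 cells, read out by a cell viability assay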
Description: SANGER: Inhibition of human NB12 cell growth in a cell viability assay.

| Compound | IC50 (SCC-3) [µM] | IC50 (NCI-H1522) [µM] | IC50 (HCC1599) [µM] | IC50 (Raji) [µM] | IC50 (NCI-H716) [µM] | IC50 (NCI-H524) [µM] | IC50 (EB-3) [µM] | IC50 (PF-382) [µM] | IC50 (CAL-148) [µM] | IC50 (L-540) [µM] | IC50 (OPM-2) [µM] | IC50 (YT) [µM] | IC50 (BL-70) [µM] | IC50 (LC4-1) [µM] | IC50 (EHEB) [µM] | IC50 (NCI-H1417) [µM] | IC50 (A253 cell line) [µM] | IC50 (TE-441-T) [µM] | IC50 (NCI-H322M) [µM] | IC50 (CESS) [µM] | other results |
| --- | --- | --- | --- | --- | --- | --- | --- | --- | --- | --- | --- | --- | --- | --- | --- | --- | --- | --- | --- | --- | --- |
| CCNc1cc(N[C@H]2CC[C@@H](O)CC2)nc(Nc2ccc3c(ccn3Cc3ccccc3)c2)n1 | > 5.12 | > 5.12 | > 5.12 | > 5.12 | > 5.12 | > 5.12 | > 5.12 | > 5.12 | > 5.12 | > 5.12 | > 5.12 | > 5.12 | > 5.12 | > 5.12 | > 5.12 | > 5.12 | > 5.12 | > 5.12 | > 5.12 | > 5.12 | IC50 (ST486): > 5.12 µM |
| COc1cc(C)c(Sc2cnc(NC(=O)c3ccc(CNC(C)C(C)(C)C)cc3)s2)cc1C(=O)N1CCN(C(C)=O)CC1 (centres undefined) | > 10.2 | > 10.2 | > 10.2 | > 10.2 | > 10.2 | > 10.2 | > 10.2 | > 10.2 | > 10.2 | > 10.2 | 8.91 | > 10.2 | > 10.2 | > 10.2 | > 10.2 | > 10.2 | > 10.2 | > 10.2 | > 10.2 | > 10.2 | IC50 (ST486): > 10.2 µM |
| Cc1ccc(NC(=O)c2cccc(C(C)(C)C#N)c2)cc1Nc1ccc2ncn(C)c(=O)c2c1 | > 4 | > 4 | > 4 | > 4 | > 4 | > 4 | > 4 | 3.05 | > 4 | 3.96 | 3.03 | > 4 | 2.86 | > 4 | > 4 | > 4 | > 4 | 2.81 | > 4 | > 4 | IC50 (NB12): > 4 µM; IC50 (ST486): 1.39 µM |

Source: ChEMBL document CHEMBL1201861, “Genomics of Drug Sensitity in Cancer screening data, Wellcome Trust Sanger Institute”
